The values that follow come from ChEMBL document CHEMBL5107984, “The untapped potential of spermidine alkaloids: Sources, structures, bioactivities and syntheses” (Eur J Med Chem, 2022).

Experiment [1] can be described thus: Antioxidant activity assessed as trolox equivalent of ORAC radical scavenging activity by ORAC assay. The format is functional.
For experiment [2], the target named is Cholinesterase (Homo sapiens) (UniProt P06276). Nature of the experiment: Inhibition of human BChE at 800 uM using butyrylthiocholine iodide as substrate incubated for 10 mins by Ellman's method.
Chain of Cholinesterase (Homo sapiens) (P06276 whole entry): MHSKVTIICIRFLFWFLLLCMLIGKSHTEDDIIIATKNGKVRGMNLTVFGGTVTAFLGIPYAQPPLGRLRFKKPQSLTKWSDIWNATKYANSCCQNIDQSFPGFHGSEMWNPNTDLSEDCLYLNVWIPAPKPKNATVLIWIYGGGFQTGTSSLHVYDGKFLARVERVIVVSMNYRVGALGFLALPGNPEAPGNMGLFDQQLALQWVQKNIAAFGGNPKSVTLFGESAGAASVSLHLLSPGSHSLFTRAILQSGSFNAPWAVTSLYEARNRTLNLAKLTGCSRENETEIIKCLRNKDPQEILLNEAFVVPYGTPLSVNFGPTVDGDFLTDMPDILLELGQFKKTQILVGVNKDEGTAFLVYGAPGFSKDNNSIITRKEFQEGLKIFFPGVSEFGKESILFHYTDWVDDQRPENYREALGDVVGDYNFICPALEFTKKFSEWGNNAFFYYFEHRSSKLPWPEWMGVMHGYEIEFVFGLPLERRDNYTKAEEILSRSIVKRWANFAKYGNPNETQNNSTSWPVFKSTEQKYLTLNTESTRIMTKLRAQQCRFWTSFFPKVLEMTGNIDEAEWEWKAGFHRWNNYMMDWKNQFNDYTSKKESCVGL
The target in experiment [3] is Cholesterol 24-hydroxylase (Homo sapiens, UniProt Q9Y6A2). Nature of the experiment: Inhibition of CYP46A1 (unknown origin). The format is ADME.
Chain of Cholesterol 24-hydroxylase (Q9Y6A2 whole entry): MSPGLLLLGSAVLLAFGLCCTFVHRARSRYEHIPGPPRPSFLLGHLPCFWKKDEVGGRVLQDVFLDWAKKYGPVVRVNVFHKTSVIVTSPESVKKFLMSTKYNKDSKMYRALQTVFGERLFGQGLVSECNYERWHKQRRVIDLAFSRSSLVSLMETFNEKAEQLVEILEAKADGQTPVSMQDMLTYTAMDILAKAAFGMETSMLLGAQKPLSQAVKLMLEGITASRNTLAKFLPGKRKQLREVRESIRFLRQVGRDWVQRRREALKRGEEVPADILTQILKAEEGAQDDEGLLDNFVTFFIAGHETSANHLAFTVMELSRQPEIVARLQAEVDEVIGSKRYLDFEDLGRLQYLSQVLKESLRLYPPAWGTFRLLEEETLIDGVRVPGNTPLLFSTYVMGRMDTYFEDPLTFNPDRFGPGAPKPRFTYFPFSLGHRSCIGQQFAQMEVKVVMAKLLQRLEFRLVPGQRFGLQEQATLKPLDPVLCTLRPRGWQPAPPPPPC
Experiment [4] has as its system SARS-CoV-2. Description: Antiviral activity against SARS-CoV-2. In kind it is functional, Severe acute respiratory syndrome coronavirus 2.
The nature of experiment [5]: Inhibition of 5HT uptake in Sprague-Dawley rat brain Synaptosome. The format is subcellular.
For experiment [6], the target named is Sodium-dependent serotonin transporter (Rattus norvegicus, UniProt P31652). Description: Displacement of [3H]-5HT from rat SERT expressed in CHO cells incubated for 20 mins by liquid scintillation analysis. In kind it is cell-based. (Displacement assays read how much labelled ligand stays bound in the presence of the test substance.)
Chain of Sodium-dependent serotonin transporter (P31652 whole entry): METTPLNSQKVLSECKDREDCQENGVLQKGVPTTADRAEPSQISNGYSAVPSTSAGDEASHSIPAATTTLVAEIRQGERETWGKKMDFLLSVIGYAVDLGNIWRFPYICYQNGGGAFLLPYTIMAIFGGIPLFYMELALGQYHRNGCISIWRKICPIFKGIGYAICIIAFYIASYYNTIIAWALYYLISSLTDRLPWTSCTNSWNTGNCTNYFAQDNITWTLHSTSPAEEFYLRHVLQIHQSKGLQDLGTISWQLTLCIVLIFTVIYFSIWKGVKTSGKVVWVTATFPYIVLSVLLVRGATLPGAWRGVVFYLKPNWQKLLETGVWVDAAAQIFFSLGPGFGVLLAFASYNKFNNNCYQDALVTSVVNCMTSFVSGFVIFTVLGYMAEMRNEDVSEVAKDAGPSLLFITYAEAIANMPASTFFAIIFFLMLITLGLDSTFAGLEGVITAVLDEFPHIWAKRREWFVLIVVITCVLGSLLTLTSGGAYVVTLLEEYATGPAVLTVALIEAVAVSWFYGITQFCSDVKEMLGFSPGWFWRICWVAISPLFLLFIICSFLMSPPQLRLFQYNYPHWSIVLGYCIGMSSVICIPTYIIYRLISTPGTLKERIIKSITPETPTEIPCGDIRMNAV

pIC50, pKi: −log10 of the molar value.

Take `O=C1CCc2cc(O)c(O)cc2[C@@H](c2ccc(O)c(O)c2)CC(=O)NCCCCNCCCN1`: the Activity in experiment [1] is 2.68 µM. The molecule also had an inhibition in experiment [2] of 37.8%.
`O=C(/C=C/c1ccc(O)c(O[C@@H]2O[C@H](CO)[C@@H](O)[C@H](O)[C@H]2O)c1)NCCCNCCCCNC(=O)CCc1ccc(O)c(O)c1` had a pKi in experiment [3] of 7.89.
With `O=C(/C=C/c1ccc(O[C@@H]2O[C@H](CO)[C@@H](O)[C@H](O)[C@H]2O)c(O)c1)NCCCNCCCCNC(=O)CCc1ccc(O)c(O)c1`, the pKi in experiment [3] is 6.97.
`NCCCCNCCCN` [SPERMIDINE]: the “inhibition (INH)” value in experiment [4] came to 85%.
For `O=C1CCc2cc(O)c(O)cc2[C@H](c2ccc(O)c(O)c2)CC(=O)NCCCCNCCCN1`, the Activity in experiment [1] was 2.37 µM. This molecule also returned an inhibition in experiment [2] of 18.1%.
Take `O=C(/C=C/c1ccc(O)cc1)NCCCCN(CCCNC(=O)/C=C/c1ccc(O)cc1)C(=O)/C=C\c1ccc(O)cc1`: the pIC50 is 5.97 in experiment [5] and 6.13 in experiment [6].
Turning to `O=C(/C=C/c1ccc(O)c(O)c1)NCCCNCCCCNC(=O)CCc1ccc(O[C@@H]2O[C@H](CO)[C@@H](O)[C@H](O)[C@H]2O)c(O)c1`, the pKi in experiment [3] was 6.59.

One may read the inhibition as the percentage by which the read-out fell short of the control. For orientation: pKi means the Ki on a negative log10 scale, so that one unit is a factor of ten. A high value points to a small Ki. As usually defined, the pIC50 is −log10 of the IC50, conventionally taken in molar units.
